This is an account of results in US20240391903A1, “AUTOTAXIN-INHIBITORS” (UNIVERSITAET MUENSTER, priority 2021, published 2024).

As a reminder, the AUC is concentration integrated over time. High values mean more exposure, low ones less exposure. For orientation: Cmax means the maximum level reached in the sampled fluid or tissue. By Tmax is commonly meant the time from dosing to the highest level. The term IC50 denotes the concentration at which inhibition is half-maximal. By CC50 is commonly meant the concentration giving 50% cytotoxicity.

The nature of data set [1]: Pharmacokinetic evaluation in mouse plasma after oral gavage. Format: in vivo. Particulars: 30 mg/kg oral, based on mean concentrations. As to the method: MJK2134025 and GLPG 1690 were each administered as wet milled aqueous micro-suspensions at a concentration of 3 mg/g in 1% carboxymethyl cellulose and 0.5% Tween 80. Dosing of the formulations was performed at 10.0 g/kg body weight, corresponding to 30 mg/kg body weight. The food intake was measured (FIG. 19).
Prior blood collection, minicollect K3 EDTA vials were opened at room temperature to dry the EDTA in order to avoid blood dilution by the fluid content. Following oral gavage of the test formulations tail vein blood samples were taken at 15 min, 30 min, 1 h, 2 h, 4 h and 8 h. Samples were collected in dried minicollect K3 EDTA plasma vials. The blood samples (20-25 μl) were mixed and immediately cooled to 4° C. Subsequently, the samples were centrifuged at 3000 g for 5-10 min. Supernatants were collected in Eppendorf tubes and frozen and stored at −80° C. until further processing.
MJK2134025 and GLPG1690 were quantified in mouse plasma samples by LC-MS. Frozen mouse plasma samples were thawed on ice. Samples were then precipitated at a ratio of 1:10 (v:v) with 5 ng mL^−1 17:0 LPA in methanol (as an internal standard) in a 1.5 mL Eppendorf tube with microinsert (clear glass, flat bottom, 0.2 mL, 31×6 mm, LABSOLUTE, Germany). The Eppendorf tubes were mixed for 2 minutes at 4° C. and 1600 rpm in a Thermomixer C (Eppendorf, Germany). The Eppendorf tubes were centrifuged at 4° C. and 16.1 rcf for 2 minutes. The supernatant was transferred to HPLC vials for UHPLC-HRMS measurements as described in the following section. Calibration standards of MJK2134025 and GLPG1690 were prepared by adding the reference substances of MJK2134025 and GLPG1690 to blank samples (mouse plasma without substance). The calibration curve was generated at 7 concentrations and with a weighting of 1/×. The following concentrations were used for the stock solutions: 0.1, 0.5, 1, 2.5, 10, 50 and 200 μg·mL^−1 in methanol. To prepare the 200 μg·mL^−1 stock solution, 0.04 mL of 1 mg·mL^−1 MJK2134025 and 0.04 mL of 1 mg·mL^−1 GLPG1690 were mixed with 0.12 mL methanol. These stock solutions (5 μL each) were added to the blank plasma (45 μL). The sample was then mixed for 2 minutes at 4° C. and 1600 rpm in Thermomixer C (Eppendorf, Germany). Subsequent sample processing was the same as for the samples quantified. All quantifications should be considered as preliminary estimates as stable isotope-labeled reference substances were not available and individual matrix effects cannot be excluded.
All processed plasma samples were analyzed with a Vanquish Horizon UHPLC system (Thermo Fisher Scientific, Bremen, Germany) coupled to a Thermo Scientific QExactive HF-X Orbitrap mass spectrometer (Thermo Fisher Scientific, Bremen, Germany) using a UHPLC column (Luna R Omega 1.6 μm C18 100 Å, 100*2.1 mm). A solution of 5 mM ammonium formate in water containing 0.1% formic acid (eluent A) and a 5 mM solution of ammonium formate in acetonitrile: H2O (95:5, % v:v) containing 0.1% formic acid (eluent B) were used as the mobile phase. A flow rate of 0.3 mL/min was used under the following gradient conditions: 30% eluent B for 1 minute, then linear increase to 98% in 14 minutes, holding 98% of eluent B for 5 minutes, and then decreasing to 30% in 0.5 minutes, followed by isocratic holding for 3.5 minutes. The column temperature was maintained at 25° C. Samples were kept at 4° C., and 8 μL was injected into the UHPLC-MS. The QExactive HF-X Orbitrap was acquired at a resolution of 60000 at full half-width and in both positive and negative modes. The following HESI source parameters were used: capillary voltage of 3.8 kV (negative mode) and 3.5 kV (positive mode), capillary temperature of 320° C., funnel RF level 40, sheath gas pressure 49 (N2>95%), auxiliary gas 10 (N2>95%), auxiliary gas heater temperature 300° C. The automatic gain control (AGC) was set to 10E+6. A scan range of m/z 400 to 600 was selected, and the injection time was set to 200 ms. […]

In the next data set the target is T1, ATX (Homo sapiens, UniProt Q13822).
T1 construct: purchased
Nature of the data set: ATX activity assay (Autotaxin inhibitor test kit, fluorescent ATX substrate). Particulars: for IC50: read-out: IC50 (nM) ATX inhibition. The class given is biochemical. Here is the method: (§1) A solution of 10 mM of the inhibitor to test in DMSO was received. Adding 40.5 μL of this solution to 959.5 μL DMSO gave a concentration of 405 μM. […] For a threefold dilution series 800 μL of 18% DMSO in water were dispensed in twelve 1.5 mL test tubes. 400 μL of the 75.9 μM inhibitor solution were added to the first vial and the solution was vortexed. For every dilution step 400 μL of the corresponding previous dilution step were transferred and mixed by vortexing. The obtained concentrations were 7594 nM, 2531 nM, 844 nM, 281 nM, 94 nM, 31 nM, 10 nM, 3.47 nM, 1.16 nM, 0.39 nM, 0.13 nM, 0.043 nM, 0.014 nM. The eight concentration steps from 31 nM to 0.014 nM were used in the assay.
The assay was performed according to the attached manual of the assay kit. In brief 80 μL reaction buffer containing ATX, 10 μL of the dilution series from the inhibitor and 10 μL fluorescent ATX substrate solution were mixed in a well of a 96 well plate. Cleavage of the substrate by ATX causes increase in fluorescence (excitation 485 nm, emission 528 nm), which is measured by a plate reader in 1 min intervals. The increase of fluorescence between 5 min and 15 min was used to calculate the reaction rate.
The autotaxin reaction was performed in four parallel replicates for the target inhibitor and two replicates for the positive control BrP-LPA. The slope of the increase in fluorescence was calculated by Excel using the “slope” function. The IC50 was calculated by GraphPad Prism using the nolinear regression (curve fit): “log (inhibitor) vs. response with variable slope (four parameters)”.
The autotaxin reaction was performed in three parallel replicates for the target inhibitors MJK2234001 and MJK2234002 and two replicates for MJK2134025 and two replicates for the positive control BrP-LPA. All ATX-tests were performed using the protocol as described above with minor modifications. Those modifications refer to the dilution principle:
as §1, with “The obtained concentrations were 7594 nM, 2531 nM, 844 nM, 281 nM, 94 nM, 31 nM, 10 nM, 3.47 nM, 1.16 nM, 0.39 nM, 0.13 nM, 0.043 nM, 0.014 nM.” left out, “300” for “31”, “0.14” for “0.014”, “assay. During the assay, the final concentration of the inhibitor during the reaction was 1/10th of the added inhibitor solution.” for “assay.”

A short description of data set [2]: Microsomal stability assay. Particulars: human liver microsomes. Format: in vitro ADME. As to the method:
A microsomal stability assay was performed according to an internal standard procedure. Positive control compound diclofenac and three test items were freshly prepared as sub-dilutions in phosphate buffer (100 mM, pH 7.4) at concentrations of 200 μM and 20 μM, respectively. All incubations were conducted in triplicate in glass screw neck vials (1.5 mL, flat bottom, Macherey-Nagel, Düren, Germany) on a Thermomixer C (Eppendorf, Germany) at 37° C. and 1500 rpm. The incubation mixtures contained 270 μL human liver microsomes (HLM, 1.1 mg·mL^−1, UltraPool HLM 150, Corning B.V. Life Science, Amsterdam, the Netherlands), 270 μL NADP regeneration mix (1 mM NADP, 5 mM glucose-6-phosphate, 5 units·mL^−1 glucose-6-phosphate dehydrogenase and 5 mM MgCl2) and 30 μL phosphate buffer to reach a total volume of 570 μL. Negative controls were performed with heat inactivated (80° C., 30 min) HLM solution. Reactions were initiated by addition of diclofenac or the test item solution (30 μL). Aliquots of 100 μL were taken at 1, 15, 30, 60, and 90 minutes and immediately processed with 100 μL acetonitrile at 4° C. to terminate the reactions, and shaken for 2 minutes at 4° C. with 1600 rpm. The mixed samples were further transferred to 15 mm glass inserts (0.2 mL/6×31 mm, Macherey-Nagel, Düren, Germany) fitted in glass screw neck vials, and centrifuged for 15 min at 4° C. with 4000 rpm. The supernatants were withdrawn and subjected to high resolution mass spectrometry analysis without further treatment.
Samples were analyzed using a Vanquish Horizon UHPLC system (Thermo Fisher Scientific, Bremen, Germany) coupled to a Thermo Scientific QExactive HF-X Orbitrap mass spectrometer (Thermo Fisher Scientific, Bremen, Germany) using a UPLC column (ACQUITY HSS T3, Waters, 1.8 μm particle size, 2.1×50 mm dimensions). The column temperature was maintained at 25° C., and the samples were kept at 4° C. […]
Microsomal stability was determined in analogy to the method as described above, but as single determinations (FIG. 18).
On the technique in general: Microsomes from liver hold many membrane-bound enzymes, among them those of drug oxidation.

Data set [3] in a line: Cytotoxicity testing in HeLa cells (methylene blue). As to conditions: human, HeLa cells (DSM ACC 57), 72 hours incubation. Format: cell-based. As to the method:
Hela cells (DSM ACC 57) were grown in RPMI 1640 medium supplemented with 10 mL·L^−1 ultraglutamine 1 (CAMBREX 17-605E/U1), 550 μL·L^−1 gentamicin sulfate (50 mg·mL^−1, CAMBREX 17-518Z) and 10% heat inactivated fetal bovine serum (GIBCO Life Technologies 10270-106) at 37° C. in a 5% CO2 atmosphere in high density polyethylene flasks (NUNC 156340). Cells were pre-incubated for 48 hours in the absence of test substances. Subsequently, Hela cells were incubated with serial dilutions of the test substances in 96 well microplates for 72 hours at 37° C. in a humidified atmosphere and 5% CO2. After incubation, the cytolytic effect of compounds was analyzed relative to the negative control (DMSO) using a colorimetric assay (methylene blue). The adherent Hela cells were fixed by glutaraldehyde (MERCK 1.04239.0250) and stained with a 0.05% solution of methylene blue (SERVA 29198) for 15 min. After gentle rinsing, the stain was eluted through addition of 0.2 mL hydrochloric acid (0.33 M) to each well. The absorptions were measured at 660 nm in a SUNRISE microplate reader (TECAN). Four replicates were assayed for each substance. […] All calculations of CC50 values were performed with the software Magellan (TECAN).

For data set [4] the following is noted: mouse model of stroke; cited from earlier work.

Regarding `CCc1nc2c(C)cc(N3CCN(CC(=O)N4CC(O)C4)CC3)cn2c1N(C)c1nc(-c2ccc(F)cc2)c(C#N)s1` [GLPG1690, reference compound], in data set [1], the AUC is 119 µg·h/mL, the highest level (Cmax) was 35200 ng/mL and the Tmax came to 1 h.
Consider `O=C(CSc1ccc2nn[nH]c2c1)N1CCN(C(=O)OCc2cc(C(F)(F)F)cc(C(F)(F)F)c2)CC1` [MJK2234001, 3,5-bis(trifluoromethyl)benzyl 4-(2-((1H-benzo[d][1,2,3]triazol-6-yl)thio)acetyl)piperazine-1-carboxylate], for which the half-inhibitory concentration (IC50) on ATX is 4 nM. In addition, the “microsomal stability / metabolism (in words)” value in data set [2] was “metabolized at a comparable speed as the experimental drug GLPG 1690”. The CC50 at 72 h in data set [3] was 6200 nM.
As to `O=C(CS(=O)(=O)c1ccc2nn[nH]c2c1)N1CCN(C(=O)OCc2cc(C(F)(F)F)cc(C(F)(F)F)c2)CC1` [MJK2234002, 3,5-bis(trifluoromethyl)benzyl 4-(2-((1H-benzo[d][1,2,3]triazol-6-yl)sulfonyl)acetyl)piperazine-1-carboxylate], at ATX, the “ATX-inhibitory activity (comparison in words)” value is reported as “almost equal ATX-inhibitory activity” and the IC50 amounted to 2 nM. In data set [2], the “microsomal stability / metabolism (in words)” value was “almost equally metabolically stable and superior to all other compounds tested”. In data set [3], this compound gave a CC50 at 72 h of 67800 nM.
As for `O=C(CCN1CCN(C(=O)OCc2cc(Cl)cc(Cl)c2)CC1)c1ccc2[nH]c(=O)oc2c1` [PF-8380], the “infarct size and stroke-related motor deficits” value in data set [4] was “significantly reduced”.
